Results: paper PMC10529594, “Strasseriolides display in vitro and in vivo activity against trypanosomal parasites and cause morphological and size defects in Trypanosoma cruzi” (PLOS Neglected Tropical Diseases, 2023)
Values joined by “and” are separate entries in the source; they are usually repeats but may differ in a detail not shown here. Equal entries are not always repeated.

Tests used:
[1] = test system: transgenic Trypanosoma cruzi Brazil strain expressing firefly luciferase; experiment: In vivo efficacy, acute T. cruzi infection in BALB/c mice (luciferase imaging); details: 30 mg/kg i.p. 5 days
Method: In vivo experiments were performed at the Anti-infectives Screening Core Services facility of the New York University School of Medicine. The transgenic Trypanosoma cruzi Brazil strain expressing firefly luciferase was used. Groups of five female BALB/c mice were infected with 2 × 10^6 T. cruzi trypomastigotes. […] Quantification is based on luciferase activity of the parasites after i.p. injection of 150 mg/Kg D-luciferin potassium-salt in PBS. Luminescence is measured on the fifth day using an IVIS Lumina II imager.

[2] = test system: intracellular T. cruzi amastigotes; experiment: Rate of kill, intracellular T. cruzi amastigotes (CPRG, 96-well); assay type: cell-based, Trypanosoma cruzi; details: Amastigotes; for EC50: Trypanosoma cruzi
Method: For rate of kill experiments, in vitro activity against intracellular T. cruzi amastigotes was analyzed at early time points: 24, 48 and 72 hours. The standard colorimetric transgenic assay was established in a 96-well format, with serial dilutions of compounds and 0.05% as the final maximal DMSO percentage per well. In these experiments L6 host cells were included as negative controls and CPRG conversion was monitored at 585 nm using a Versamax microplate reader (Molecular devices).

[3] = test system: T. cruzi Tulahuen C4 trypomastigotes; experiment: T. cruzi trypomastigote viability assay (resazurin fluorescence); assay type: cell-based, Trypanosoma cruzi; details: Trypanosoma cruzi, TULAHUEN, 72 h, Tulahuen C4, 72 hours at 37°C
Method: Tulahuen T. cruzi trypomastigotes were recovered 6 days post infection from the supernatant of harvested infected L6 cells cultures after 3 hours at 37°C. 90 μL of parasite culture at a density of 5 × 10^6 cells in RPMI 1640 media were dispensed into 96 Nunc flat bottom assay plates containing 10 μL of each compound.
In the fluorescence assay, plates were incubated for 24 and 48 hours after which 10 μL of the resazurin solution were added to each well. Plates were further incubated for 24 hours and fluorescence was measured at 550/590 nm using a Tecan Infinite 200 microplate reader. […] Final maximal DMSO percentage in the well was 0.1% and compound concentrations ranged from 0.2 to 100 μM.

[4] = test system: L. donovani MHOM/ET/67/HU3 transgenic intracellular amastigotes; experiment: L. donovani intracellular amastigote assay (luciferase, THP-1 macrophages); assay type: cell-based; details: Leishmania donovani, THP-1, 72 h, read-out: EC50 L. donovani
Method: Leishmania donovani MHOM/ET/67/HU3 cells with the luciferase gene integrated into the parasite genome was obtained as described. Parasites were grown at 28°C in RPMI 1640-modified medium supplemented with 20% heat-inactivated fetal bovine serum (iFBS, Invitrogen) with […] of hygromycin B.
THP-1 cells were differentiated into macrophages with 20 ng/mL of PMA in a 96-well plate at 3 × 10^4 cells per well for 48 hours followed by 24 hours of culture in fresh medium. Cells were then infected with transgenic stationary L. donovani MHOM/ET/67/HU3 promastigotes expressing the luciferase gene at a multiplicity of infection (MOI) of 10. A volume of 100 μL of culture media containing the test compounds was added to each well and the plates were incubated at 37°C for 72 hours. Luminescence was measured using the Promega kit luciferase assay system.

| Compound | Total counts, individual mouse ([1]; 30 mg/kg) | Total counts, Average ([1]; vehicle average 8050000) | Hill slope ([2]; 24 h) | Hill slope ([2]; 48 h) | Hill slope ([2]; 72 h) | EC50 ([2]; 24 h) [µM] | EC50 ([2]; 48 h) [µM] | EC50 ([2]; 72 h) [µM] | EC50 [3] [µM] | EC50 [4] [µM] |
| --- | --- | --- | --- | --- | --- | --- | --- | --- | --- | --- |
| O=C(Cn1ccnc1[N+](=O)[O-])NCc1ccccc1 [Benznidazole, benznidazole] | 4950000 and 268000 and 48200 and 38100 | 1330000 | 1.06 | 1.24 | 1.99 | 2.87 | 1.03 | 0.89 | 3.93 |  |
| C/C1=C\[C@H](C)CCC(=O)/C(C)=C/[C@H](C)C[C@@H](C)CC[C@@H]([C@@H](C)C(=O)O)OC(=O)[C@@H](C)C1 [Strasseriolide A, strasseriolide A] |  |  |  |  |  |  |  |  | > 25 | > 15 |
